Experimental data taken from patent US12655116B2, “Substituted isophthalic acid diamides” (Bayer Aktiengesellschaft, priority 2020, dated 2026).

How the values were obtained:
[1] = test system: DIGSA; test: Pre-emergence herbicidal action against DIGSA; type: in vivo, Digitaria sanguinalis
Summary of the method: (§1)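 Sandy loam pots, seeds covered with soil, then surface-treated with WP or EC formulations at 600–800 l/ha water plus 0.2% wetting agent. Greenhouse, 3 weeks. Percent damage vs untreated controls.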

[2] = test system: VERPE; test: Pre-emergence herbicidal action against VERPE; type: in vivo, Veronica persica; settings: dosage 80 g/ha
Summary of the method: as §1

[3] = test system: ABUTH; test: Post-emergence herbicidal action against ABUTH; type: in vivo, Abutilon theophrasti; settings: dosage 20 g/ha, visual assessment about 3 weeks after treatment vs untreated controls
Summary of the method: (§2)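 Visual % rating (0% = as untreated, 100% = dead) ~3 wk after spraying one-leaf-stage plants grown in sandy loam; WP/EC in water at 600–800 l/ha, 0.2% wetting agent.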

[4] = test system: AMARE; test: Post-emergence herbicidal action against AMARE; type: in vivo, Amaranthus retroflexus; settings: 20 g/ha, visual assessment about 3 weeks after treatment, 100% = plants have died, 0% = like control plants
Summary of the method: as §2

[5] = test system: VIOTR; test: Pre-emergence herbicidal action against VIOTR; type: in vivo, Viola tricolor
Summary of the method: as §1

[6] = test system: MATIN; test: Pre-emergence herbicidal action against MATIN; type: in vivo, Matricaria inodora
Summary of the method: as §1

[7] = test system: MATIN; test: Post-emergence herbicidal action against MATIN; type: in vivo, Matricaria inodora
Summary of the method: as §2

[8] = test system: ABUTH; test: Pre-emergence herbicidal action against ABUTH; type: in vivo, Abutilon theophrasti; settings: for Pre-emergence action against ABUTH (herbicidal activity): 80 g/ha, scored visually after 3 weeks vs untreated controls (100% = plants have died, 0% = like control plants)
Summary of the method: as §1

[9] = test system: ALOMY; test: Pre-emergence herbicidal action against ALOMY; type: in vivo, Alopecurus myosuroides; settings: 80 g/ha, pre-emergence, scored visually after 3 weeks vs untreated controls (100% = plants have died, 0% = like control plants)
Summary of the method: as §1

[10] = test system: SETVI; test: Pre-emergence herbicidal action against SETVI; type: in vivo, Setaria viridis; settings: dosage 80 g/ha
Summary of the method: as §1

[11] = test system: PHBPU; test: Post-emergence herbicidal action against PHBPU; type: in vivo, Pharbitis purpurea
Summary of the method: as §2

[12] = test system: AMARE; test: Pre-emergence herbicidal action against AMARE; type: in vivo, Amaranthus retroflexus
Summary of the method: as §1

[13] = test system: PHBPU; test: Pre-emergence herbicidal action against PHBPU; type: in vivo, Pharbitis purpurea; settings: dosage 80 g/ha
Summary of the method: as §1

[14] = test system: VERPE; test: Post-emergence herbicidal action against VERPE; type: in vivo, Veronica persica; settings: 20 g/ha
Summary of the method: as §2

[15] = test system: POLCO; test: Pre-emergence herbicidal action against POLCO; type: in vivo, Polygonum convolvulus
Summary of the method: as §1

[16] = test system: ECHCG; test: Post-emergence herbicidal action against ECHCG; type: in vivo, Echinochloa crus-galli
Summary of the method: as §2

[17] = test system: DIGSA; test: Post-emergence herbicidal action against DIGSA; type: in vivo, Digitaria sanguinalis
Summary of the method: as §2

[18] = test system: ECHCG; test: Pre-emergence herbicidal action against ECHCG; type: in vivo, Echinochloa crus-galli; settings: 80 g/ha
Summary of the method: as §1

[19] = test system: SETVI; test: Post-emergence herbicidal action against SETVI; type: in vivo, Setaria viridis
Summary of the method: as §2

[20] = test system: VIOTR; test: Post-emergence herbicidal action against VIOTR; type: in vivo, Viola tricolor
Summary of the method: as §2

[21] = 20 g/ha, scored visually after 3 weeks vs untreated controls, 100% = plants have died, 0% = like control plants
[22] = 80 g/ha, scored visually after 3 weeks vs untreated controls (100% = plants have died, 0% = like control plants)

| Compound | Pre-emergence action against DIGSA in % ([1]; dosage 80 g/ha) | Pre-emergence action against VERPE in % [2] | Post-emergence action against ABUTH in % [3] | Post-emergence action at 20 g/ha against AMARE in % [4] | Pre-emergence action against VIOTR in % ([5]; dosage 20 g/ha) | Pre-emergence action against VIOTR in % ([5]; dosage 80 g/ha) | Pre-emergence action against MATIN in % ([6]; dosage 20 g/ha) | Pre-emergence action against MATIN in % ([6]; dosage 80 g/ha) | Post-emergence action against MATIN in % ([7]; dosage 5 g/ha) | Post-emergence action against MATIN in % ([7]; dosage 20 g/ha) | Pre-emergence action against ABUTH (herbicidal activity) [8] | Pre-emergence action against SETVI in % [10] | Post-emergence action against PHBPU in % ([11]; dosage 20 g/ha) | Pre-emergence action against AMARE in % [12, 21] | Pre-emergence action against AMARE in % [12, 22] | Pre-emergence action against PHBPU in % [13] | Post-emergence action against VERPE in % [14] | Pre-emergence action against POLCO in % ([15]; dosage 80 g/ha) | other results |
| --- | --- | --- | --- | --- | --- | --- | --- | --- | --- | --- | --- | --- | --- | --- | --- | --- | --- | --- | --- |
| CCn1nnnc1NC(=O)c1ccc(C(F)(F)F)c(C(=O)NC2CCC2)c1Cl [Example 2-146] | 100% | 80% | 80% | 80% | 100% | 100% | 100% | 100% | 80% | 90% | 90% | 100% | 90% | 100% | 100% | 90% | 80% | 80% | Pre-emergence action against ALOMY (herbicidal activity) [9]: 80%; Post-emergence action against PHBPU in % ([11]; dosage 5 g/ha): 80%; Pre-emergence action against POLCO in % ([15]; dosage 20 g/ha): 80% |
| CCn1nnnc1NC(=O)c1ccc(C(F)F)c(C(=O)NC2CC2)c1C1CC1 [Example 2-306] | 100% | 100% | 80% | 90% | 100% | 100% | 90% | 100% | 80% | 90% | 100% | 100% | 80% | 90% | 100% | 100% | 90% | 80% | Pre-emergence action against DIGSA in % ([1]; dosage 20 g/ha): 100%; Post-emergence action against ECHCG in % ([16]; dosage 5 g/ha): 90%; Post-emergence action against ECHCG in % ([16]; dosage 20 g/ha): 90%; Post-emergence action against DIGSA in % ([17]; 5 g/ha): 80%; Post-emergence action against DIGSA ([17]; 20 g/ha): 90%; Pre-emergence action against ABUTH (herbicidal activity in percent) ([8]; dosage 20 g/ha, scored visually after 3 weeks vs untreated controls, 100% = plants have died, 0% = like control plants): 100%; Pre-emergence action against ECHCG in % [18]: 100%; Post-emergence action against SETVI in % ([19]; dosage 5 g/ha): 80%; Post-emergence action against SETVI in % ([19]; dosage 20 g/ha): 80%; Post-emergence action against VIOTR in % ([20]; 5 g/ha): 90%; Post-emergence action against VIOTR in % ([20]; 20 g/ha): 90% |
